Measurements published in ChEMBL document CHEMBL1201862, “PubChem BioAssay data set” (2004).
The source made the active and inactive calls.

Assays:
[1] = target: Endoplasmic reticulum aminopeptidase 1 (Homo sapiens, UniProt Q9NZ08); test: inhibition of human ERAP1 enzyme activity – biochemical, cherry-pick, set 2, plate reader, dose response (AID 743314)
[2] = HGIII-sPLA2 enzyme inhibition potency – biochemical, QFRET, IC50, dose response (AID 743457);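 further: green fluorescence rise as the enzyme cleaves BODIPY PC-A2 in liposomes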
INS1 = test: INS-1E survival protection against cytokine death – cell-based, luminescence, retest, dose response (AID 449756); assay type: functional; settings: Rattus norvegicus;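 further: cell death triggered by IL-1 beta plus TNF-alpha plus IFN-gamma mixture; protective hits raise ATP signal compared with cytokine alone wells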
cells [3] = assay type: functional, cell-based
Streptococcus = test: GAS UMAA2166 growth inhibition – luminescence, BacTiterGlo, counter-screen for streptokinase expression inhibitor project, dose response (AID 1915); assay type: functional, organism-based;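 further: potency for reduction of bacterial viability or growth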
cells [4] = assay type: functional, cell-based; remark: listed apart in the source
[5] = tested on: Streptococcus sp. 'group A'; test: Streptococcus pyogenes SK(-)GAS viability under kanamycin – luminescence, BacTiterGlo, confirmation, counter-screen for streptokinase expression inhibitor project, dose response (AID 1900); assay type: functional, organism-based
[6] = general mammalian cell viability loss – inhibitor set, cherry-pick, set 2, cytotoxicity control for miR-122 modulator project, dose response (AID 720697); assay type: functional, cell-based
[7] = target: T1, Sentrin-specific protease 6 (Homo sapiens, UniProt Q9GZR1); assay type: functional;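 further: Luminescence-based dose-response confirmatory assay of SENP6 inhibition, following up an ultra-high-throughput screen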
T1 sequence (Q9GZR1 whole entry): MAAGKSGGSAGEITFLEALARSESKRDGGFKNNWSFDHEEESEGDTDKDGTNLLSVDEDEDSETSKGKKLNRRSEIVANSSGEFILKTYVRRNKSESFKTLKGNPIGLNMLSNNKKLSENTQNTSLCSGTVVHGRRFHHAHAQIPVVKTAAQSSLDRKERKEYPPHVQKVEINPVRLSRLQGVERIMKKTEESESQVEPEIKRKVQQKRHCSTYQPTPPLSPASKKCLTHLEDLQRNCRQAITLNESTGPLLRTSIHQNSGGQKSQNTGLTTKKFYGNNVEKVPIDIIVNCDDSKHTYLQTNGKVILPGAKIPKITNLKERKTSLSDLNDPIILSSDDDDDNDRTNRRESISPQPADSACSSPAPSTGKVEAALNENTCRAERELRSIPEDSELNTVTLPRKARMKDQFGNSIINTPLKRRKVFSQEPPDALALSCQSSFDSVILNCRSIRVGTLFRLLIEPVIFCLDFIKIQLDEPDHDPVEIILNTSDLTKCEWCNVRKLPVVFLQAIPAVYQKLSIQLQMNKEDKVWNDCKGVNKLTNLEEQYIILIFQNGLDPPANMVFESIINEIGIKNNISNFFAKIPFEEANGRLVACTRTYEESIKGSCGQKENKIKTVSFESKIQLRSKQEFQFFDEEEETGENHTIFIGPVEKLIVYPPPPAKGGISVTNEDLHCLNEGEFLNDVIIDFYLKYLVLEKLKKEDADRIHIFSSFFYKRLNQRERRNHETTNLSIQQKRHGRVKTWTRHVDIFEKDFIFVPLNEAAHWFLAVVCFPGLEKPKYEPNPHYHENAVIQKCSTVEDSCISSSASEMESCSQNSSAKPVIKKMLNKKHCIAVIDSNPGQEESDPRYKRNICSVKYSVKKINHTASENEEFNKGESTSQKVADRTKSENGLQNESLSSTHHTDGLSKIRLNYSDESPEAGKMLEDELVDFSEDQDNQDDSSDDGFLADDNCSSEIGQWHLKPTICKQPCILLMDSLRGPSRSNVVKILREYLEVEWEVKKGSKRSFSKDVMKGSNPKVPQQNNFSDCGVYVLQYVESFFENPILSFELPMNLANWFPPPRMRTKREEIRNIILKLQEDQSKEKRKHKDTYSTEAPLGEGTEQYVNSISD

[8] = target: T2, Sentrin-specific protease 7 (Homo sapiens, UniProt Q9BQF6); assay type: functional;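 further: Luminescence-based dose-response confirmation of ultra-high-throughput screening hits, measuring inhibition of SENP7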
T2 sequence (Q9BQF6 whole entry): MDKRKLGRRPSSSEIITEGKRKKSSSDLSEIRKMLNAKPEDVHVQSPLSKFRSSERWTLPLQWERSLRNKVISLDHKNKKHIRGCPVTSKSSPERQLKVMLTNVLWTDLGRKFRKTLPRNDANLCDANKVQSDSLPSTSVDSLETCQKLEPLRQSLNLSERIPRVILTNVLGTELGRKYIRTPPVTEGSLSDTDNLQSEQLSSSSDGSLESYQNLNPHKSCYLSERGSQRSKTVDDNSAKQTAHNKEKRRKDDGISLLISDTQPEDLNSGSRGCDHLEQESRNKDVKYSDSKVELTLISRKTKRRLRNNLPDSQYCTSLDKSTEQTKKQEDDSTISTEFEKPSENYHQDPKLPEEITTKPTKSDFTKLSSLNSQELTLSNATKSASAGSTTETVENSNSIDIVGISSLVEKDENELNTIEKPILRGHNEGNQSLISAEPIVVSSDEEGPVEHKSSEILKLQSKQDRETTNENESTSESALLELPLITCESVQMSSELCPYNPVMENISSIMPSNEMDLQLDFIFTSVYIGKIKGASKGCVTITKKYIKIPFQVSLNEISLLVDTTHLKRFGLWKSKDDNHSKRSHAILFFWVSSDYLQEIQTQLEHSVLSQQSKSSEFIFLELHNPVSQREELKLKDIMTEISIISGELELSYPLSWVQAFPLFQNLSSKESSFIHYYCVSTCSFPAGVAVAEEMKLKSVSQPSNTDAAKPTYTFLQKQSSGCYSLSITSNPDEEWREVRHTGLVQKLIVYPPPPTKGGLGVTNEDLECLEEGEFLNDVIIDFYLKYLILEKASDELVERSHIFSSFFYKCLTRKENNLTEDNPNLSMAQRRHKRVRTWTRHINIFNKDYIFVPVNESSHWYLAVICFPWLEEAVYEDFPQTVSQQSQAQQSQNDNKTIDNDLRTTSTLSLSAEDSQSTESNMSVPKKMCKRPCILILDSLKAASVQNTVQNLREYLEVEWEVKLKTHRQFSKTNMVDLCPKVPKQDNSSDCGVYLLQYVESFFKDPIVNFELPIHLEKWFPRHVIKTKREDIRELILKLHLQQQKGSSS

Caspase-3 = target: T3, Caspase-3 (Homo sapiens, UniProt P42574); assay type: functional;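 further: Dose-response selectivity test against caspase-3 for candidate inhibitors of sentrin-specific proteases (SENPs)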
T3 sequence (P42574 whole entry): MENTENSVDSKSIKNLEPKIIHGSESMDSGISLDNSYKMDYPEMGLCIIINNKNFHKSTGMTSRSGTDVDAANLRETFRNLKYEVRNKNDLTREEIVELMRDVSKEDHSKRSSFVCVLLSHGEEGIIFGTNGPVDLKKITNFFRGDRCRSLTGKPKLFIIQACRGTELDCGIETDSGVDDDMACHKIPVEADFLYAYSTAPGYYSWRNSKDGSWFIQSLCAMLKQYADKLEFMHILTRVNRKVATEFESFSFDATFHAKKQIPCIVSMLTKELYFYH

[9] = target: Luciferin 4-monooxygenase (Photinus pyralis, UniProt P08659); test: inhibition of purified Photinus pyralis luciferase – biochemical, luminescence, dose response (AID 1891)
Sequence of Luciferin 4-monooxygenase (P08659 whole entry): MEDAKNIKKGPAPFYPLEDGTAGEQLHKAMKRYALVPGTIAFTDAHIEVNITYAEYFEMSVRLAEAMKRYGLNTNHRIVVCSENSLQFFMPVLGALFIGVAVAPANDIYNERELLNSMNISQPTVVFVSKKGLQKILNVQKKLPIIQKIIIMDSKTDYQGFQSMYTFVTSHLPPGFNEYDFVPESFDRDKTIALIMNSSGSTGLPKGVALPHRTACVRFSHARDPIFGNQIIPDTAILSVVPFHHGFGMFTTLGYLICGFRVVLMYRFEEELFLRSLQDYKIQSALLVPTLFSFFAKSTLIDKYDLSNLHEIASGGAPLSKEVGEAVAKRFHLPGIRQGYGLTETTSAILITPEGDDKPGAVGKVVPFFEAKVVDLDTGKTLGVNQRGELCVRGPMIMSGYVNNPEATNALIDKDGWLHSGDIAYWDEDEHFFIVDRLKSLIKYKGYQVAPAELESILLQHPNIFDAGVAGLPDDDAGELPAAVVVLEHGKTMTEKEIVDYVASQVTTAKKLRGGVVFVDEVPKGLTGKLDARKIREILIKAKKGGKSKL

[10] = Luminescence Cell-Based Dose Confirmation HTS to Identify Inhibitors of Platelet Dense Granule Release. [Related pubchem assays: 1663 (Primary HTS), 1678 (Summary of Project)]; assay type: functional
[11] = target: T4, Probable nicotinate-nucleotide adenylyltransferase (Staphylococcus aureus (strain N315), UniProt P65502); assay type: functional, Staphylococcus aureus subsp. aureus N315;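 on IC50 Mean: confirmatory dose-response retesting of NadD inhibitor hits first found in an ultra-high-throughput screen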
T4 sequence (P65502 whole entry): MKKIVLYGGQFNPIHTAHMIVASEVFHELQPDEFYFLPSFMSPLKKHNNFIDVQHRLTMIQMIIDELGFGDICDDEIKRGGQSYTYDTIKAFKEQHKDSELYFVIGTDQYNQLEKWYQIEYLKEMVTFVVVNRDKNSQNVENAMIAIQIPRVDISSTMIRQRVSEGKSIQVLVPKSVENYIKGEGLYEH

[12] = target: T4, Probable nicotinate-nucleotide adenylyltransferase; assay type: functional, Staphylococcus aureus subsp. aureus N315; settings: read-out: IC50_Mean
[13] = target: T5, Sentrin-specific protease 8 (Homo sapiens, UniProt Q96LD8); assay type: functional;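 further: luminescence read-out of SENP8 inhibition, dose-response confirmation following an ultra-high-throughput screen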
T5 sequence (Q96LD8 whole entry): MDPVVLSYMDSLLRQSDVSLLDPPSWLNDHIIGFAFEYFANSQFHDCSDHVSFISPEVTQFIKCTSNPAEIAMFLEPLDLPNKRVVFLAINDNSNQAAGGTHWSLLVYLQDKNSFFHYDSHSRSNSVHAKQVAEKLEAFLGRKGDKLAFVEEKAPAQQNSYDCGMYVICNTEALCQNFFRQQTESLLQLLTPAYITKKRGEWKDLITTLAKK

[14] = OV-90 cell viability loss – plate reader, dry powder, SA8, PAX8 inhibitor project, dose response (AID 743149); assay type: functional, cell-based
Paired box protein Pax-8 = Paired box protein Pax-8 (Homo sapiens, UniProt Q06710); test: PAX8 transcriptional activity inhibition in RMG-I – RMG-I cells, luciferase, cherry-pick, dose response (AID 687027); assay type: functional, cell-based;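 further: luciferase reporter driven by Pax8 target thyroperoxidase promoter measured by SteadyGlo luminescence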
Sequence of Paired box protein Pax-8 (Q06710 whole entry): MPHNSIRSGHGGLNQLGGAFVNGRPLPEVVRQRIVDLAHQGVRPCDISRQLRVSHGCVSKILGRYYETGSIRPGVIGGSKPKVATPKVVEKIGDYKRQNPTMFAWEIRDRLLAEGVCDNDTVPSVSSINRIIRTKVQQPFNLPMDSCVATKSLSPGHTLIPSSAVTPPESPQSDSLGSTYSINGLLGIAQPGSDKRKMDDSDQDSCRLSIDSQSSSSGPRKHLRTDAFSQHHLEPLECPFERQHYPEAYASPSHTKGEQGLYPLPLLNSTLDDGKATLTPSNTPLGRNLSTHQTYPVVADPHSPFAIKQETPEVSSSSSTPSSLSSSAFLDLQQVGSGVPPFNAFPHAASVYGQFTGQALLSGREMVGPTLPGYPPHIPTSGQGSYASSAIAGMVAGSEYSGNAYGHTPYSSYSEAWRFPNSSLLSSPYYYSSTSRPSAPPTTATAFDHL

[15] = OVCAR4 cell viability loss – plate reader, dry powder, SA11, cytotoxicity control for PAX8 inhibitor project, dose response (AID 743150); assay type: functional, cell-based; settings: OVCAR-4
[16] = COV434 cell viability loss – plate reader, dry powder, SA7, cytotoxicity control for PAX8 inhibitor project, dose response (AID 743145); assay type: functional, cell-based
[17] = COV362 cell viability loss – plate reader, dry powder, SA12, cytotoxicity control for PAX8 inhibitor project, dose response (AID 743144); assay type: functional, cell-based
[18] = target: Tyrosyl-DNA phosphodiesterase 2 (Homo sapiens, UniProt O95551); test: potency against TDP2 phosphodiesterase activity – biochemical, epi absorbance, IC50, dose response (AID 743297)
Sequence of Tyrosyl-DNA phosphodiesterase 2 (O95551 whole entry): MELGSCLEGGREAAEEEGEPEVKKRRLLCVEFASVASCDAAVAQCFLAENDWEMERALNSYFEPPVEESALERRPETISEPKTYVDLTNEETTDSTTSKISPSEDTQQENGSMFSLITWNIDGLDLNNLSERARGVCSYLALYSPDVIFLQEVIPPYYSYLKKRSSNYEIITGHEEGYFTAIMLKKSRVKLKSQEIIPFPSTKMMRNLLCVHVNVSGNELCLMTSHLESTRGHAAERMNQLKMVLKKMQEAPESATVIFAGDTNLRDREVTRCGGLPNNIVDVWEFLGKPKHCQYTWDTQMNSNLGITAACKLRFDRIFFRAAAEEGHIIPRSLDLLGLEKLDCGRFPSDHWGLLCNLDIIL

[19] = A2780 cell killing – plate reader, dry powder samples, cytotoxicity control, dose response (AID 743046); assay type: functional, cell-based
[20] = OVCAR-3 cell viability loss – plate reader, dry powder samples, PAX8 inhibitor project, dose response (AID 743044); assay type: functional, cell-based
[21] = OVCAR8 cell viability loss – plate reader, dry powder samples, PAX8 project, dose response (AID 743197); assay type: functional, cell-based; settings: OVCAR-8
[22] = IGROV1 cell killing – plate reader, dry powder samples, PAX8 inhibitor project, dose response (AID 743043); assay type: functional, cell-based; settings: IGROV-1
[23] = CMV-driven luciferase expression suppression in HEK293 – cell-based, luminescence, dry powder, counter-screen for Pax8 inhibitor project, dose response (AID 743020); assay type: functional
[24] = general cell-killing toxicity readout – plate reader, dry powder samples, cytotoxicity control for PAX8 inhibitor project, dose response (AID 743021); assay type: functional, cell-based
[25] = toxicity toward immortalized ovarian surface epithelium – cell-based, plate reader, dry powder samples, cytotoxicity control for PAX8 inhibitor project, dose response (AID 743045); assay type: functional
Kallikrein-7 = Kallikrein-7 (Homo sapiens, UniProt P49862); test: Fluorescence Intensity-based biochemical primary high throughput dose response assay to identify activators of kallikrein-7 (K7) zymogen.
Sequence of Kallikrein-7 (P49862 whole entry): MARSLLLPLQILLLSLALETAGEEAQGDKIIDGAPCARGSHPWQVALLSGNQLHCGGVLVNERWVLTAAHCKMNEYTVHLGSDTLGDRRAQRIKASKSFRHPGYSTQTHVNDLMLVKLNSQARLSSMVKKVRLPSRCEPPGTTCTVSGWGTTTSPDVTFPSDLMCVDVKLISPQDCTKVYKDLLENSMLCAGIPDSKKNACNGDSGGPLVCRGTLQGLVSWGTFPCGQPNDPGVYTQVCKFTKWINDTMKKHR

Sequence of Endoplasmic reticulum aminopeptidase 1 (Q9NZ08 whole entry): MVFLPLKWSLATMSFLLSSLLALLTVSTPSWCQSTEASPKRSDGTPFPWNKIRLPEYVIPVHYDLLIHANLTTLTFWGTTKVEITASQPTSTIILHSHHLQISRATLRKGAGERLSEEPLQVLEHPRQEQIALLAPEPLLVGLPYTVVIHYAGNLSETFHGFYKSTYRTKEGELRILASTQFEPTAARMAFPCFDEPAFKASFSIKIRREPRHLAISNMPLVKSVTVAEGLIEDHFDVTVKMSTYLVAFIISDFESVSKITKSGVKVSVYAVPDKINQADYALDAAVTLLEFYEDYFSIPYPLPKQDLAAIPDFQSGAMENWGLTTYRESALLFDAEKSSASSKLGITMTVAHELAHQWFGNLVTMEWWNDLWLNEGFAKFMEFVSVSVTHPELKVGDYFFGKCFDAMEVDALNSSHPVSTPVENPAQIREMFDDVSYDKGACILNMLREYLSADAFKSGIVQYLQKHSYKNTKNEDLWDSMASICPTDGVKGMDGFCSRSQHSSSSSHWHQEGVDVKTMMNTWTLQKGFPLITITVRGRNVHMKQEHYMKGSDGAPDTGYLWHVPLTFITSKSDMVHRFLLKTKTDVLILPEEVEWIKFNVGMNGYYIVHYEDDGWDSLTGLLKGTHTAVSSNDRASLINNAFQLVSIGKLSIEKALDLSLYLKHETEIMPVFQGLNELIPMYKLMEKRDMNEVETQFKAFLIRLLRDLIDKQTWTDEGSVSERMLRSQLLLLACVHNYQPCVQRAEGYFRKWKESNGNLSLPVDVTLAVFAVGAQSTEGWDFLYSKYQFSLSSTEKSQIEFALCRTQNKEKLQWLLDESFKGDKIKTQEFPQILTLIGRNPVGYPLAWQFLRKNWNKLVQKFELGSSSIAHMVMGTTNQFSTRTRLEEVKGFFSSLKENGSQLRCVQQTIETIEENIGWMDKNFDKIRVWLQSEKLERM

Cc1cc(=O)oc2c(CN3CCCC3)c(O)c(Cl)cc12
AC50 [1]: 5.76 µM (active)

Cc1cccc(N=C(S)NNC(=O)c2ccc(O)cc2O)c1C
IC50 [2]: > 122 µM (inactive)

Cc1ccn2c(Nc3ccccc3C)c(-c3ccccn3)nc2c1
AC50 (INS1): 5.32 µM (active) | EC50 (cells [3]): 146 µM (active) | EC50 (Streptococcus): 6.24 µM (active) | IC50 [2]: 67.9 µM (inactive) | EC50 (cells [4]): > 350 µM (not active) | EC50 [5]: 2.75 µM (active)

COc1cccc(OCc2cc(/C=N/Nc3ccc(C(=O)O)cc3)ccc2OC)c1
AC50 [6]: 7.48 µM (active) | IC50 [7]: 6.91 µM (active) | IC50 [8]: 8.85 µM (active) | IC50 (Caspase-3): 22.4 µM (active) | EC50 [9]: 4.64 µM (active) | EC50 [10]: 84.7 µM (active) | IC50 [11]: 7.37 µM (active) | IC50 [12]: 25.5 µM (active) | IC50 [13]: 15.7 µM (active)

CN1CC(=O)N2C(c3ccc(Cl)cc3)c3[nH]c4ccccc4c3C[C@H]2C1=O (stereo partly drawn)
AC50 [14]: > 100 µM (inactive) | AC50 (Paired box protein Pax-8): 10.3 µM (active) | AC50 [15]: 10.3 µM (active) | AC50 [16]: 21.4 µM (active) | AC50 [17]: 9.73 µM (active)

CCC(=O)N(C)C[C@H]1Oc2ncc(C#Cc3ccncc3)cc2C(=O)N([C@H](C)CO)C[C@H]1C
AC50 [1]: 2.92 µM (active)

Nc1c2c(O)nc(O)cc2nn1-c1ccccc1
IC50 [18]: 79.9 µM (inactive)

C[C@@H]1CN([C@H](C)CO)C(=O)c2cc(NS(=O)(=O)c3ccc(Cl)cc3)ccc2O[C@@H](C)CCCCO[C@H]1CN(C)Cc1ccc(C(F)(F)F)cc1
AC50 (Paired box protein Pax-8): 6.62 µM (active) | AC50 [19]: 10.8 µM (active) | AC50 [20]: 10.6 µM (active) | AC50 [21]: 21.6 µM (active) | AC50 [22]: 21.3 µM (active) | AC50 [23]: 31.8 µM (active) | AC50 [24]: 3.68 µM (active) | AC50 [25]: 20.2 µM (active)

COc1cc2ccccc2cc1C(=O)OCC(=O)N1CCOCC1
EC50 (Kallikrein-7): > 69.5 µM (inactive)
